The text below walks through data of patent publication USRE47493E1, “Substituted bicyclic dihydropyrimidinones and their use as inhibitors of neutrophil elastase activity” (Boehringer Ingelheim International GmbH, priority 2014, dated 2019).

The target of this assay is Human neutrophil elastase (Homo sapiens (Human), UniProt P08246). Description: Human Neutrophil Elastase Assay. The format is biochemical. The protocol: Human Neutrophil Elastase Assay
Materials: Human neutrophil elastase was purchased from Calbiochem (Cat.No.: 324681) and the elastase substrate MeOSuc-Ala-Ala-Pro-Val-AMC from Bachem (Cat.No.: I-1270). All other materials were of the highest grade commercially available.
The following buffers were used: Compound buffer: 100 mM Tris, 500 mM NaCl, adjusted to pH 7.5; Assay buffer: 100 mM Tris, 500 mM NaCl, adjusted to pH 7.5, containing 0.01% BSA.
Assay conditions: Test compounds were prediluted in DMSO and subsequently in compound buffer (5% DMSO final). 5 μL of these compound dilutions were mixed with 10 μl Neutrophil elastase (9 ng/ml in assay buffer) in a black 384 well OptiPlate (Perkin Elmer, Cat No.: 6007270) and incubated for 15 min at room temperature. Subsequently 10 μL substrate solution in assay buffer were added (250 nM final concentration) and the plates were incubated for 60 min at room temperature. After inactivation of the enzyme, fluorescence intensities were measured at 380 nm excitation and 460 nm emission wavelengths.
Each plate contains wells with a high value control (DMSO+enzyme+substrate) and wells with a low value control (DMSO+inactivated enzyme+substrate). IC50 values were estimated using a sigmoidal concentration response curve with variable slope. Means of low values were taken as 0%, means of high values as 100%.

[1] abbreviates: human neutrophil elastase, substrate MeOSuc-Ala-Ala-Pro-Val-AMC, pH 7.5, read-out: IC50.

Read-outs that look alike come from different tables or passages of the source.

Sequence of Human neutrophil elastase (P08246 30-267): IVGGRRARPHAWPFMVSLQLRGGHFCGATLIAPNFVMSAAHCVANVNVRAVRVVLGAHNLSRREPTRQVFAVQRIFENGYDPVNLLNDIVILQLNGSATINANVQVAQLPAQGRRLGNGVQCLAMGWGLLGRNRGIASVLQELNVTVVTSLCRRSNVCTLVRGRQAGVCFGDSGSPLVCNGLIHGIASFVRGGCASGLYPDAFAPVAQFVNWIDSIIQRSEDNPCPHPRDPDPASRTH

As to `N#Cc1ccc(C2NC(=O)N(c3cccc(C(F)(F)F)c3)C3=C2C(=O)CCC3)cc1` (racemic) [Example 1, 4-(2,5-Dioxo-1-(3-(trifluoromethyl)phenyl)-1,2,3,4,5,6,7,8-octahydroquinazolin-4-yl)-benzonitrile], the IC50 under setting [1] came to 28.5 nM.
`CS(=O)(=O)c1cc(C#N)ccc1C1NC(=O)N(c2cccc(C(F)(F)F)c2)C2=C1C(=O)CCC2` (racemic) [Example 18, 4-(2,5-Dioxo-1-(3-(trifluoromethyl)phenyl)-1,2,3,4,5,6,7,8-octahydroquinazolin-4-yl)-3-(methylsulfonyl)benzonitrile]: the IC50 under setting [1] is 8.5 nM.
In the case of `CS(=O)(=O)c1cc(C#N)ccc1C1NC(=O)N(c2cccc(C(F)F)c2)C2=C1C(=O)CCC2` (racemic) [Example 19, 4-(1-(3-(Difluoromethyl)phenyl)-2,5-dioxo-1,2,3,4,5,6,7,8-octahydroquinazolin-4-yl)-3-(methylsulfonyl)benzonitrile], the IC50 under setting [1] was found to be 10.7 nM.
The same measure, in the same setting: to `CN1C(=O)N(c2cccc(C(F)(F)F)c2)C2=C(C(=O)CCC2)C1c1ccc(C#N)cc1` (racemic) [Example 20, 4-(1-(3-(Trifluoromethyl)phenyl)-3-methyl-2,5-dioxo-1,2,3,4,5,6,7,8-octahydroquinazolin-4-yl)benzonitrile] belongs 7.3 nM.
On the same count and under the same terms, the same measure for `COC(=O)CN1C(=O)N(c2cccc(C(F)(F)F)c2)C2=C(C(=O)CCC2)C1c1ccc(C#N)cc1` (racemic) [Example 31, Methyl 2-(4-(4-Cyanophenyl)-2,5-dioxo-1-(3-(trifluoromethyl)phenyl)-1,2,5,6,7,8-hexahydroquinazolin-3(4H)-yl)acetate]: 18.4 nM; for `CCS(=O)(=O)c1cc(C#N)ccc1[C@@H]1NC(=O)N(c2cccc(C(F)(F)F)c2)C2=C1C(=O)CCC2` (single isomer, unassigned) [Example 54B]: 1870 nM; for `N#Cc1ccc([C@H]2NC(=O)N(c3cccc(C(F)(F)F)c3)C3=C2C(=O)CCC3)cc1` [Example 1A, (R)-4-(2,5-Dioxo-1-(3-(trifluoromethyl)phenyl)-1,2,3,4,5,6,7,8-octahydroquinazolin-4-yl)benzonitrile]: 9.5 nM.
Still for that read-out and setting: the same measure for `N#Cc1ccc([C@@H]2NC(=O)N(c3cccc(C(F)(F)F)c3)C3=C2C(=O)CCC3)cc1` [Example 1B, (S)-4-(2,5-Dioxo-1-(3-(trifluoromethyl)phenyl)-1,2,3,4,5,6,7,8-octahydroquinazolin-4-yl)benzonitrile]: 6560 nM.
For `CS(=O)(=O)c1cc(C#N)ccc1[C@@H]1NC(=O)N(c2cccc(C(F)(F)F)c2)C2=C1C(=O)CCC2` [Example 18B, (R)-4-(2,5-Dioxo-1-(3-(trifluoromethyl)phenyl)-1,2,3,4,5,6,7,8-octahydroquinazolin-4-yl)-3-(methylsulfonyl)benzonitrile], the IC50 by setting is: under setting [1], 2510 nM; (read-out: IC50, inhibition of neutrophil elastase) 2510 nM.
For the compound `CS(=O)(=O)c1cc(C#N)ccc1[C@@H]1NC(=O)N(c2cccc(C(F)F)c2)C2=C1C(=O)CCC2` [Example 19B, (R)-4-(1-(3-(Difluoromethyl)phenyl)-2,5-dioxo-1,2,3,4,5,6,7,8-octahydroquinazolin-4-yl)-3-(methylsulfonyl)benzonitrile], under setting [1], the IC50 was 1660 nM.
The same measure, in the same setting: to `CN1C(=O)N(c2cccc(C(F)(F)F)c2)C2=C(C(=O)CCC2)[C@H]1c1ccc(C#N)cc1` [Example 20A, (R)-4-(1-(3-(Trifluoromethyl)phenyl)-3-methyl-2,5-dioxo-1,2,3,4,5,6,7,8-octahydroquinazolin-4-yl)benzonitrile] belongs 2.2 nM.
Still for that read-out and setting: the same measure for `CN1C(=O)N(c2cccc(C(F)(F)F)c2)C2=C(C(=O)CCC2)[C@@H]1c1ccc(C#N)cc1` [Example 20B, (S)-4-(1-(3-(Trifluoromethyl)phenyl)-3-methyl-2,5-dioxo-1,2,3,4,5,6,7,8-octahydroquinazolin-4-yl)benzonitrile]: 1340 nM; for `COC(=O)CN1C(=O)N(c2cccc(C(F)(F)F)c2)C2=C(C(=O)CCC2)[C@H]1c1ccc(C#N)cc1` [Example 31A, (R)-Methyl 2-(4-(4-Cyanophenyl)-2,5-dioxo-1-(3-(trifluoromethyl)phenyl)-1,2,5,6,7,8-hexahydroquinazolin-3(4H)-yl)acetate]: 7.6 nM; for `COC(=O)CN1C(=O)N(c2cccc(C(F)(F)F)c2)C2=C(C(=O)CCC2)[C@@H]1c1ccc(C#N)cc1` [Example 31B, (S)-Methyl 2-(4-(4-Cyanophenyl)-2,5-dioxo-1-(3-(trifluoromethyl)phenyl)-1,2,5,6,7,8-hexahydroquinazolin-3(4H)-yl)acetate]: 7020 nM.
As for `CN(C)C(=O)CN1C(=O)N(c2cccc(C(F)(F)F)c2)C2=C(C(=O)CCC2)[C@H]1c1ccc(C#N)cc1` [Example 34A, (R)-2-(4-(4-Cyanophenyl)-2,5-dioxo-1-(3-(trifluoromethyl)phenyl)-1,2,5,6,7,8-hexahydroquinazolin-3(4H)-yl)-N,N-dimethylacetamide], under setting [1], the IC50 came out at 1.5 nM.
On the same count and under the same terms, to `CN(C)C(=O)CN1C(=O)N(c2cccc(C(F)(F)F)c2)C2=C(C(=O)CCC2)[C@@H]1c1ccc(C#N)cc1` [Example 34B, (S)-2-(4-(4-Cyanophenyl)-2,5-dioxo-1-(3-(trifluoromethyl)phenyl)-1,2,5,6,7,8-hexahydroquinazolin-3(4H)-yl)-N,N-dimethylacetamide] belongs 570 nM.
Same read-out and setting: the same measure for `Cn1ncc2c1CN(C(=O)CN1C(=O)N(c3cccc(C(F)(F)F)c3)C3=C(C(=O)CCC3)[C@H]1c1ccc(C#N)cc1)C2` [Example 35A, (R)-4-(3-(2-(1-Methylpyrrolo[3,4-c]pyrazol-5(1H,4H,6H)-yl)-2-oxoethyl)-2,5-dioxo-1-(3-(trifluoromethyl)phenyl)-1,2,3,4,5,6,7,8-octahydroquinazolin-4-yl)benzonitrile]: less than 1 nM; for `Cn1ncc2c1CN(C(=O)CN1C(=O)N(c3cccc(C(F)(F)F)c3)C3=C(C(=O)CCC3)[C@@H]1c1ccc(C#N)cc1)C2` [Example 35B, (S)-4-(3-(2-(1-Methylpyrrolo[3,4-c]pyrazol-5(1H,4H,6H)-yl)-2-oxoethyl)-2,5-dioxo-1-(3-(trifluoromethyl)phenyl)-1,2,3,4,5,6,7,8-octahydroquinazolin-4-yl)benzonitrile]: 26.8 nM.
On the same count and under the same terms, to `N#Cc1ccc(C2C3=C(CCCC3=O)N(c3cccc(C(F)(F)F)c3)C(=O)N2CC(=O)N2CCN3CCCC3C2)cc1` (centres unmarked) [Example 36.56] belongs 5 nM; to `CN1C[C@@H](NC(=O)CN2C(=O)N(c3cccc(C(F)(F)F)c3)C3=C(C(=O)CCC3)C2c2ccc(C#N)cc2)CCC1=O` (some centres unmarked) [Example 36.61], 12.7 nM.
For the compound `N#Cc1ccc(C2C3=C(CCCC3=O)N(c3cccc(C(F)(F)F)c3)C(=O)N2CC(=O)NCCN2CCNC2=O)cc1` (centres unmarked) [Example 36.62], under setting [1], the IC50 stood at 8.2 nM.
The same measure, in the same setting: to `CNC(=O)N1C(=O)N(c2cccc(C(F)(F)F)c2)C2=C(C(=O)CCC2)[C@@H]1c1ccc(C#N)cc1S(C)(=O)=O` [Example 47B, (R)-4-(4-Cyano-2-(methylsulfonyl)phenyl)-N-methyl-2,5-dioxo-1-(3-(trifluoromethyl)-phenyl)-1,2,5,6,7,8-hexahydroquinazoline-3(4H)-carboxamide] belongs 94 nM; to `CS(=O)(=O)c1cc(C#N)ccc1C1C2=C(CCCC2=O)N(c2cccc(C(F)(F)F)c2)C(=O)N1CC(F)F` (centres unmarked) [Example 58.3], 3.1 nM.
On the same count and under the same terms, the same measure for `COCCCN1C(=O)N(c2cccc(C(F)(F)F)c2)C2=C(C(=O)CCC2)C1c1ccc(C#N)cc1S(C)(=O)=O` (centres unmarked) [Example 58.4]: 11.3 nM; for `CS(=O)(=O)c1cc(C#N)ccc1C1C2=C(CCCC2=O)N(c2cccc(C(F)(F)F)c2)C(=O)N1CC(=O)N1CCC1` (centres unmarked) [Example 62.1]: less than 1 nM.
On the same count and under the same terms, to `CS(=O)(=O)c1cc(C#N)ccc1C1C2=C(CCCC2=O)N(c2cccc(C(F)(F)F)c2)C(=O)N1CC(=O)N1CCCC1` (centres unmarked) [Example 62.2] belongs less than 1 nM.
Turning to `CN(CCO)C(=O)CN1C(=O)N(c2cccc(C(F)(F)F)c2)C2=C(C(=O)CCC2)C1c1ccc(C#N)cc1S(C)(=O)=O` (centres unmarked) [Example 62.3], under setting [1], the IC50 was 1.3 nM.
Still for that read-out and setting: to `CS(=O)(=O)c1cc(C#N)ccc1C1C2=C(CCCC2=O)N(c2cccc(C(F)(F)F)c2)C(=O)N1CC(=O)N1CC2CC2C1` (centres unmarked) [Example 62.4] belongs less than 1 nM.
Still for that read-out and setting: to `CS(=O)(=O)c1cc(C#N)ccc1C1C2=C(CCCC2=O)N(c2cccc(C(F)(F)F)c2)C(=O)N1CC(=O)N1CCC(F)C1` (centres unmarked) [Example 62.6] belongs less than 1 nM; to `COCCN(C)C(=O)CN1C(=O)N(c2cccc(C(F)(F)F)c2)C2=C(C(=O)CCC2)C1c1ccc(C#N)cc1S(C)(=O)=O` (centres unmarked) [Example 62.7], less than 1 nM; to `COC1CCN(C(=O)CN2C(=O)N(c3cccc(C(F)(F)F)c3)C3=C(C(=O)CCC3)C2c2ccc(C#N)cc2S(C)(=O)=O)CC1` (centres unmarked) [Example 62.8], 11.6 nM.
For `CN(Cc1cnn(C)c1)C(=O)CN1C(=O)N(c2cccc(C(F)(F)F)c2)C2=C(C(=O)CCC2)C1c1ccc(C#N)cc1S(C)(=O)=O` (centres unmarked) [Example 62.9], the IC50 under setting [1] is 1.4 nM.
On the same count and under the same terms, to `N#Cc1ccc(C2C3=C(CCCC3=O)N(c3cccc(C(F)(F)F)c3)C(=O)N2C(=O)N[C@H]2CCC[C@@H]2O)cc1` (some centres unmarked) [Example 70.11] belongs less than 1 nM; to `N#Cc1ccc(C2C3=C(CCCC3=O)N(c3cccc(C(F)(F)F)c3)C(=O)N2C(=O)N[C@H]2CCCC[C@@H]2O)cc1` (some centres unmarked) [Example 70.17], 1.1 nM.
